Experimental data as given in US20200315168A1, “Aroma-Loaded Microcapsules with Antibacterial Activity for Eco-friendly Applications” (The American University in Cairo, priority 2017, published 2020).

Experiments:
[1] = system: Staphylococcus aureus (ATCC 19213); assay: Agar diffusion method (inhibition zone); format: cell-based; parameters: key to Inhibition zone after 4 days of incubation (symbol): — (*): After 4 days of incubation, the bacteria grown up in the inhibition zone initially formed; conditions: S. aureus; for Average diameters of inhibition zones, after 24 hours of incubation: 100 μl in 6 mm well, 37° C.; for Inhibition zone after 4 days of incubation (symbol): free oils
Procedure: (§1) This assay was conducted with the limonene and vanillin microcapsules suspensions after applying the washing procedure described previously. Moreover, the free active agents were also tested separately (not incorporated in microcapsules). Staphylococcus aureus (ATCC 19213) and Escherichia coli (ATCC 10536) were used as representatives for Gram positive and Gram negative bacteria, respectively. The bacterial inoculums were prepared, under aseptic conditions, by transferring 4 isolated colonies of each type to individual test tubes containing nutrient broth and then incubated at 37° C. for 24 hours. The inoculums were then diluted by sterilized Ringer solution to a concentration of 0.5 McFarland turbidity (concentration of 1.5-3.0×10^8 CFU/ml). The concentration of the bacteria dilutions, also ascertained through UV spectrophotometry at 625 nm, was 0.0938 for the S. aureus, and 0.0940 for the E. coli. The bacterial solutions were then inoculated on the surface of Mueller Hinton Agar plates, using sterilized cotton swabs, and thereafter allowed to dry. Then, a well of 6 mm diameter was made in the center of each inoculated plate; the plug was removed, and filled with 100 μl of the microcapsules suspension. The limonene oil was diluted in dimethyl sulfoxide (DMSO) (7:3 ratio), and the vanillin dissolved in corn oil (0.03 g vanillin in 1 g of oil). The plates were incubated at 37° C. for 24 h. After this time period, the diameter of the inhibition zone was measured and incubation maintained for more 4 days in order to evaluate further changes in the inhibition zone. The clear zone formed, after incubation, around each hole (inhibition halo), indicates antimicrobial activity and its diameter is a measure of the inhibitory effect. All of the tests were done in duplicates.

[2] = system: Escherichia coli (ATCC 10536); assay: Agar diffusion method (inhibition zone); format: cell-based; parameters: key to Inhibition zone after 4 days of incubation (symbol): — (*): After 4 days of incubation, the bacteria grown up in the inhibition zone initially formed; conditions: E. coli; for Average diameters of inhibition zones, after 24 hours of incubation: 100 μl in 6 mm well, 37° C.; for Inhibition zone after 4 days of incubation (symbol): free oils
Procedure: as §1

Structure (SMILES)	Average diameters of inhibition zones, after 24 hours of incubation [1] [cm]	Inhibition zone after 4 days of incubation (symbol) [1]	Average diameters of inhibition zones, after 24 hours of incubation [2] [cm]	Inhibition zone after 4 days of incubation (symbol) [2]
C=C(C)[C@H]1CC=C(C)CC1 [Limonene in DMSO, Limonene]	3.30 ± 0.18	— (*)	3.30 ± 0.31	— (*)
COc1cc(C=O)ccc1O [Vanillin in corn oil, Vanillin]	1.00 ± 0.20	— (*)	0.95 ± 0.32	— (*)
